As usually defined, the IC50 is the concentration that inhibits the measured activity by half. A high value points to lower potency.

These results are taken from doi:10.1101/2025.07.11.664310v1 (biorxiv, 2025).

The target in assay [1] is hOGG1 (Homo sapiens, UniProt O15527). Description: Cas12a-coupled fluorescence assay, 8-oxoG DNA hairpin transducer. Type of assay: biochemical.
The target in assay [2] is T1, Fpg (Escherichia coli, UniProt P05523).
T1 sequence (P05523 2-269): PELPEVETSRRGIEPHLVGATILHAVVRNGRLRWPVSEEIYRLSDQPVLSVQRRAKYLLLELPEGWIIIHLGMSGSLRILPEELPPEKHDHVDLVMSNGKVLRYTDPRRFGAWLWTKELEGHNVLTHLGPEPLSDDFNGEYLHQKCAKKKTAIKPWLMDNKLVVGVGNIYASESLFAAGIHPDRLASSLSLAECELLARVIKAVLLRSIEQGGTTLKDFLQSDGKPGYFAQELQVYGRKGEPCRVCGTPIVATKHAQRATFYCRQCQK
Described as above. Type of assay: biochemical.

hOGG1, sequence (O15527 whole entry): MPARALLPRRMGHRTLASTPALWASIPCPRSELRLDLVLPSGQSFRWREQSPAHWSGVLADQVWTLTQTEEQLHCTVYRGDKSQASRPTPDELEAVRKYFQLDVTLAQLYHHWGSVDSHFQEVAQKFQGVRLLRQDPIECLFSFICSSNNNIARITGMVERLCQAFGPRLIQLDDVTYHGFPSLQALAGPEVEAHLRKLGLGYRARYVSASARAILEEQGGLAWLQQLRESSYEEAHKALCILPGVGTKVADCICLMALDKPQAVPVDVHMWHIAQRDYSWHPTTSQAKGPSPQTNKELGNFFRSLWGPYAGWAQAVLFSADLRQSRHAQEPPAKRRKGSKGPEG

The compound `NNC(=O)c1sc2cccc(Cl)c2c1Cl` [Inh#1, O8] yielded an IC50 in assay [1] of 2.5 ± 0.5 µM.
Turning to `O=c1[nH]c2[nH]c(=S)[nH]c(=O)c2[nH]1` [Inh#4, Mercapto-6,8-purinediol], the IC50 in assay [2] is 70.3 ± 0.7 µM; in assay [1], 11.9 ± 0.4 µM.
